Test system: CYP1A1
Assay: P450-GLO activity assay, CYP1A1 induction in hMSC-derived hepatocytes
Details: inducer for 2 days

Cc1ccc2cc3c(ccc4ccccc43)c3c2c1CC3 [3-methylcholanthrene]
CYP1A1 activity after inducer treatment: induced

From patent US20060154235A1, “Human hepatocyte-like cells and uses thereof” (Takahiro Ochiya, priority 2005, published 2006)
